Laboratory results taken from patent US10538515B2, “Isatin-derived compounds, use of the compounds for the treatment of AIDS and method of treatment using these compounds” (FUNDAÇÄO OSWALDO CRUZ, priority 2016, dated 2020).
Like-named read-outs stand apart in the source and are kept apart here.

What was measured:
[1] = tested on: Suptl cells (T-lymphocyte cell line); assay: Cytotoxicity assay (MTT); format: cell-based
Method: The T-lymphocyte cell line (Suptl) was cultured in an RPMI 1640 medium (GIBICO). The cultures were supplemented with 10% Fetal Bovine Serum (SFB; HyClone, Logan, Utah, USA), 100 U/mL of penicillin and […] of streptomycin, and incubated at 37° C., in an atmosphere of 5% CO2. Virus stocks were prepared using the methodology described by Souza and Denizot (SOUZA, T. M. L; RODRIGUES, D. Q.; […], V. F.; MARQUES, I. P.; DE SOUZA, M. C. B. V.; […], I. C. P. P.; BOU-HABIB, D. C; FONTES, C. F. L. Characterization of HIV-1 enzyme reverse transcriptase inhibition by the compound 6-chloro-1.4-dihydro-4-oxo-1-(β-D-ribofuranosyl) quinoline-3-carboxylic acid through kinetic and in silico studies. Current HIV Research, v. 7, No 3, page 327-335, 2009. DENIZOT, F.; LANG, R. Rapid colorimetric assay for cell growth and survival. Modifications to the tetrazolium dye procedure giving improved sensitivity and reliability. The Journal of Immunological Methods, v. 89, No 2, page 271-277, 1986).
. They were then run through an MTT assay (3-(4,5-dimethylazol-2-yl)-2.5-diphenyl tetrazolium bromide) in order to analyze cell induction infeasibility. MTT is a colorimetric method that measures mitochondrial dehydrogenase activity based on the ability of live cells to reduce 3-(4,5-methylazol-2-yl)-2.5-diphenyl tetrazolium bromide salt in the product. A […] solution of 3-(4,5-dimethylthiazol-2-yl)-2.5-diphenyl tetrazolium bromide (1 mg/ml) (MTT, Sigma) was thus added to the cells, kept in Dulbecco's Modified Eagle's medium (DMEM) without serum. The MTT was removed after three hours and, after adding […] of isopropanol acid (0.04N HCl in isopropanol), the optical density (OD) was determined using a wavelength range of 570 to 690 nm, according to KUO et al (KUO, Y. C; CHEN, C. C; TSA, W. J.; HO, Y. H. Regulation of type 1 herpes simplex virus replication in vero cells by Psychotriaserpens: relationship to gene expression, DNA replication, and protein synthesis. Antiviral Research, v. 51, No 2, pages 95 to 109, 2001). The dye coloring has different optical densities, depending on mitochondrial metabolism after treating cells with different concentrations of the new derivatives or the absence thereof. The 50% cytotoxic concentration (CC50) was calculated through linear regression analysis from the dose-response curve obtained from experimental data.

[2] = molecular target: T1, recombinant HIV-1 reverse transcriptase (RTHXB2) (Human immunodeficiency virus type 1 group M subtype B, UniProt P04585); assay: Reverse transcriptase inhibition activity (RDDP, [3H]dTTP incorporation); format: biochemical; conditions: for IC50: 50% inhibitory concentration, mean of three independent experiments, read-out: CI50 (the source's name)
T1 construct: The enzyme is derived from a polyprotein encoded by the virus, processed by the viral protease
Method: Reverse Transcriptase Inhibition Activity
The RDDP activity was determined in 50 mM Tris HCl (pH 7.8), 6 mM MgCl2, 1 mM dithiothreitol, 50 mM KCl, 5 μM dTTP, […] poly (rA) oligo (dT) template primer (Pharmacia, Piscataway, N.J., USA) and 3 U of enzyme (one unit is the enzyme concentration incorporating dTTP […] per minute per mg of enzyme at 37° C. under standard conditions). The reaction isotope dilutions were prepared at 2 μCi of [3H] dTTP (49 Ci/mmol)/2,7μ dTTP. The reaction was initiated at 37° C., incubated for 30 minutes and halted with 0.5M EDTA. The precipitate was collected on Whatman 81 filter paper and washed with 0.1 M sodium phosphate. The incorporated nucleotides were measured by liquid scintillation. The 50% inhibitory concentration (Ciso) was determined by linear regression analysis of the dose-response curve obtained from experimental data. The polymerization reaction was conducted in the presence and absence of test substances, as well as the presence and absence of standards.
All tests were conducted on three separate occasions. At least three independent experiments were performed and triplicates were run for each concentration.

| SMILES | CC50 ([1]; 50% cytotoxic concentration, 72 hours, MTT, read-out: CC50) [µM] | IC50 [2] [µM] | CC50 [1] [µM] | IS ([2]; CC50 / CI50) |
| --- | --- | --- | --- | --- |
| CCOP(=O)(Cn1cc(CN2C(=O)C(O)(C#CC3CC3)c3cc(Cl)ccc32)nn1)OCC (centres unmarked) [IIf, diethyl ((4-((5-chloro-3-(cyclopropylethanol)-3-hydroxy-2-oxoindolin-1-yl)methyl)-1H-1,2,3-triazole-1-yl)methyl) phosphonate] | > 100 | 3.2 | – | – |
| C[C@H](Cn1cnc2c(N)ncnc21)OCP(=O)(O)O [Tenofovir, reference compound] | – | 1.2 | 680 | 567 |
